Assays:
Type in all cases: biochemical
[1] = target: T1, α-glucosidase (Saccharomyces cerevisiae, Sigma G5003); assay: p-nitrophenol release at […] nm, microplate; settings: PNPG (20 μL of 5 mM), PBS pH 7.4, 37 °C, 5 min pre-incubation; error is SE; read-out: α-Glucosidase IC50 (SE) (mg/mL, μM†)
T1 construct: gene MAL12; commercial yeast enzyme preparation (Sigma)

[2] = target: T1, α-glucosidase (Saccharomyces cerevisiae, Sigma G5003); assay: p-nitrophenol release at […] nm, progress curves at several PNPG and inhibitor concentrations; settings: PNPG 1-15 mM, pH 7.4, 37 °C, unreliable: b44 prints another KI, Ki unit not printed (doses in μM)
[3] = test system: T1, α-glucosidase (Saccharomyces cerevisiae, Sigma G5003); assay: p-nitrophenol release at […] nm, initial PNPG varied; settings: no inhibitor; PBS pH 7.4, 37 °C; error is SE

Row | IC50 [1] [µM] | Ki ([2]; competitive in table, non-competitive in abstract) | Ki ([2]; non-competitive in table, competitive in abstract) | Km [3] [µM] | Structure (SMILES)
1 | 159 | – | – | – | C[C@@H]1O[C@@H](OC[C@H]2O[C@@H](Oc3c(-c4ccc(O)cc4)oc4cc(O)cc(O)c4c3=O)[C@H](O)[C@@H](O)[C@@H]2O)[C@H](O)[C@H](O)[C@H]1O [compound 1, Nicotiflorin]
2 | 9.66 | 3.92 (1.48) | – | – | C[C@@H]1O[C@H](O[C@@H]2[C@@H](O)[C@H](O)[C@@H](COc3ccc(-c4oc5cc(O)cc(O)c5c(=O)c4O)cc3O)O[C@H]2O)[C@H](O)[C@H](O)[C@H]1O [compound 4, quercetin-4’-O-(2-O-β-rhamno-pyranosyl-6-β-glucopyranoside)]
3 | 16.9 | – | 12.29(1.58) | – | C[C@@H]1O[C@H](OC[C@H]2O[C@@H](Oc3c(-c4ccc(O)c(O)c4)oc4cc(O)cc(O)c4c3=O)[C@H](O[C@H]3O[C@@H](C)[C@H](O)[C@@H](O)[C@H]3O)[C@@H](O)[C@@H]2O)[C@H](O)[C@H](O)[C@H]1O [compound 5, quercetin-3-O-(2,6-di-O-β,β-rhamno-pyranosyl-β-glucopyranoside)]
4 | – | – | – | 986 | O=[N+]([O-])c1ccc(O[C@H]2O[C@H](CO)[C@@H](O)[C@H](O)[C@H]2O)cc1 [p-Nitrophenyl-α-D-glucopyranoside]

Reference: publication PMC6930599, “Novel Flavonoid Glycosides of Quercetin from Leaves and Flowers of Gaiadendron punctatum G.Don. (Violeta de Campo), used by the Saraguro Community in Southern Ecuador, Inhibit α-Glucosidase Enzyme” (Molecules, 2019)
